Assays:
[1] = system: H9C2 cells; experiment: Toxicity on normal H9C2 cells (MTT assay); assay type: cell-based; conditions: read-out: Survival Rate (%)
[2] = system: injured SH-SY5Y cells; experiment: Protective effect against tert-butyl hydroperoxide-induced SH-SY5Y neurotoxicity cells (MTT assay); assay type: cell-based; conditions: Homo sapiens; for viability at 3.125 µM / viability at 6.25 µM / viability at 12.5 µM / viability at 25 µM / viability at 50 µM: injured SH-SY5Y cells, read-out: Proliferation Rate (%); for EC50: tert-butyl hydroperoxide-induced SH-SY5Y neurotoxicity, read-out: EC50 for protecting injured SH-SY5Y cells;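 on Proliferation Rate (%): 0% equals CoCl2-injured cells and 100% equals NGF-treated cells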
Procedure: The protective effects of baicalein derivatives in vitro was evaluated against tert-butyl, hydroperoxide-induced, SH-SY5Y neurotoxicity cells using an MTT assay. In addition, their toxicity evaluation was tested on normal H9C2 cells. The resulting proliferation rates (%) at different concentrations, as well as their 50% effective concentrations (EC50) for protecting damaged SH-SY5Y cells of the baicalein amino acid derivatives, are summarized in Table 2.
(§1) The SH-SY5Y ([…]) and H9C2 ([…]) cell lines were obtained from the Chinese Academy of Medical Sciences and Peking Union Medical College. All of the cell lines were grown in dulbecco’s modified eagle medium (DMEM) with 10% (v/v) fetal bovine serum (FBS) and 1% (v/v) penicillin/streptomycin (Thermo Technologies, New York, NY, USA), under a humidified atmosphere containing 5% CO2 at 37 °C. The baicalein derivatives were dissolved in DMSO (Sigma, St. Louis, MO, USA) and added at various concentrations to the cell culture.
(§2) The protective effect of these compounds was evaluated on SH-SY5Y and H9C2 cell lines via the MTT method. The cells growing in the logarithmic phase were cultured in 96-well plates at a density 3 × 10^3 cells/well and incubated for 24 h. Then each well was treated with the required concentrations (50 µM concentrations, 25 µM concentrations, 12.5µM concentrations, 6.25 µM concentrations, and 3.125 µM concentrations) of baicalein derivatives, and incubated 36 h at 37 °C with 5% CO2. After that, the cells were induced by H2O2 (final concentration, […]) for 12 h. Control-differentiated cells were injected with new growth media at equal amounts. Before […] MTT solution (5 mg/mL) was added to each well, the cell culture fluid was discarded, and […] fresh cell culture fluid was added. The plate was incubated for a further 4 h at 37 °C. The cell supernatant medium was removed carefully, without disturbing the attached cells, and formazan crystals were solubilized by adding 150 μL DMSO into each well. The absorbance was measured at 490 nm with a plate reader (BIORAD 550 spectrophotometer, Bio-rad Life Science Development Ltd., Beijing, China). H2O2 was dissolved in DMEM medium. Wells without drugs were used as blanks. The EC50 values were defined as the concentrations that causes the maximum effect of 50%; IC50 values were defined as the concentration of compound which gives 50% growth inhibition, and were calculated using the GraphPad Prism 5. The proliferation rates of damaged SH-SY5Y cells were calculated in the following formula (1): [OD490 (compound) − OD490 (CoCl2)]/[OD490 (NGF) − OD490 (CoCl2)] × 100%(1) The EC50 values were using the equation −pEC50 = log Cmax − log 2 × (ΣP − 0.75 + 0.25Pmax + 0.25Pmin)(2) where Cmax is the maximum concentration, ΣP is the sum of proliferation rates, Pmax is the maximum value of the proliferation rate, and Pmin is the minimum value of the proliferation rate. Cell viability was expressed as a percentage of the control.

[3] = system: H9C2 cells; experiment: Toxicity on normal H9C2 cells (MTT assay); assay type: cell-based; conditions: MTT; for viability at 6.25 µM / viability at 12.5 µM / viability at 25 µM / viability at 50 µM: H9C2 cells, read-out: Survival Rate (%); for IC50: normal H9C2 cells
Procedure: To study cytotoxicity on normal cells, the cytotoxicity of compounds against normal H9C2 cells were tested.
as §1, §2
The inhibition rate was calculated in the following equation: % inhibition = 1 − (Sample group OD/Control group OD) × 100%(3)

| melting point | Structure (SMILES) | viability at 100 µM [1] | viability at 3.125 µM [2] | viability at 6.25 µM [2] | viability at 12.5 µM [2] | viability at 25 µM [2] | viability at 50 µM [2] | EC50 [2] | viability at 6.25 µM [3] | viability at 12.5 µM [3] | viability at 25 µM [3] | viability at 50 µM [3] | IC50 [3] |
| --- | --- | --- | --- | --- | --- | --- | --- | --- | --- | --- | --- | --- | --- |
| 155.7 °C | CCC(C)C(NC(=O)OCc1ccccc1)C(=O)Oc1cc2oc(-c3ccccc3)cc(=O)c2c(O)c1O (centres unmarked) [Compound 7, 5,6-dihydroxy-4-oxo-2-phenyl-4H-chromen-7-yl 2-{[(benzyloxy)carbonyl]amino}-3-methyl-pentanoate] | 124% | 63.6% | 69.7% | 79.8% | 79.8% | 72.2% | 5.24 µM | 152% | 147% | 145% | 139% | > 100 µM |
| 100.7 °C | O=C(CC(NC(=O)OCc1ccccc1)C(=O)Oc1c(O)cc2oc(-c3ccccc3)cc(=O)c2c1O)OCc1ccccc1 (centres unmarked) [Compound 9, 1-benzyl 5,7-dihydroxy-4-oxo-2-phenyl-4H-chromen-6-yl 3-{[(benzyloxy)carbonyl]amino} butanedioate] | 107% | 28.1% | 98.2% | 79.6% | 101% | 84.2% | 4.47 µM | 153% | 133% | 130% | 115% | > 100 µM |
| 157.8 °C | O=C(CC(NC(=O)OCc1ccccc1)C(=O)OCc1ccccc1)Oc1c(O)cc2oc(-c3ccccc3)cc(=O)c2c1O (centres unmarked) [Compound 4, 1-benzyl 5,7-dihydroxy-4-oxo-2-phenyl-4H-chromen-6-yl 2-{[(benzyloxy)carbonyl]amino} butanedioate] | 126% | 59.1% | 94.1% | 77.7% | 70.2% | 54.8% | 5.51 µM | 156% | 140% | 140% | 131% | > 100 µM |

| Structure (SMILES) | melting point | viability at 100 µM [1] | viability at 3.125 µM [2] | viability at 6.25 µM [2] | viability at 12.5 µM [2] | viability at 25 µM [2] | viability at 50 µM [2] | EC50 [2] | viability at 6.25 µM [3] | viability at 12.5 µM [3] | viability at 25 µM [3] | viability at 50 µM [3] | IC50 [3] |
| --- | --- | --- | --- | --- | --- | --- | --- | --- | --- | --- | --- | --- | --- |
| CN(CC(=O)Oc1cc2oc(-c3ccccc3)cc(=O)c2c(O)c1O)C(=O)OC(C)(C)C [Compound 5, 5,6-dihydroxy-4-oxo-2-phenyl-4H-chromen-7-yl 2{[(tert-butoxy)carbonyl](methyl)amino}acetate] | 218 °C | 76.9% | 28.4% | 37.6% | 76.4% | 78.1% | 60.7% | 9.96 µM | 116% | 116% | 105% | 95.1% | > 100 µM |
| CC(C)CC(NC(=O)OC(C)(C)C)C(=O)Oc1cc2oc(-c3ccccc3)cc(=O)c2c(O)c1O (centres unmarked) [Compound 15, 5,6-dihydroxy-4-oxo-2-phenyl-4H-chromen-7-yl 2-{[(tert-butoxy)carbonyl]amino}-4-methyl-pentanoate] | 199.3 °C | 159% | 17.8% | 42.8% | 42.5% | 41.3% | 22.3% | 23.9 µM | 196% | 193% | 177% | 173% | > 100 µM |
